Measurements taken from PMC10600239, “Selective MCL-1 inhibitor ABBV-467 is efficacious in tumor models but is associated with cardiac troponin increases in patients” (Communications Medicine, 2023).

Test system: AMO-1 xenografts
Assay: AMO-1 xenograft efficacy (tumor volume, body weight)
Type: in vivo, mouse
Details: SCID-beige mice bearing AMO-1 (DSMZ) flank xenografts; IV, Q7Dx2, 6.25-25 mg/kg; 5% DMSO, 10% cremophor EL, 85% D5W
Method: All animal studies were conducted in accordance with the guidelines approved by the Institutional Animal Care and Use Committees of AbbVie. The research protocol was approved by In Vivo Pharmacology at AbbVie prior to study initiation but was not publicly registered or disclosed. Female C.B-17 SCID-beige mice (AMO-1, OPM-2, NCI-H929, and OCI-AML2 xenografts) and female NSG mice (MV4-11-Red.Fluc systemic) were purchased from Charles River Laboratories (Wilmington, MA). Animals were housed in a light cycle-controlled room with HEPA filtration at 22 °C. Animals had nesting and climbing cage topper as the primary environmental enrichment. Animals were inoculated subcutaneously in the right flank with 5 × 10^6 (AMO-1, OPM-2, NCI-H929, and OCI-AML2) or intravenous (IV) with 5 × 10^6 (MV4-11-Red.Fluc). The inoculation volume (0.2 mL) comprised a 50:50 mixture of cells in growth media and Matrigel (BD Biosciences) for subcutaneous injections and 100% phosphate-buffered saline for IV administration. All cell lines used in this publication were authenticated using IDEXX for STR profiling as well as their IMPACT and human IMPACT panels for pathogen screening. Electronic calipers were used to measure the length and width of each tumor 2 to 3 times per week. Tumor volume was estimated by applying the following equation: volume = length × width^2/2. All groups remained blinded during measurements and dosing; only veterinary staff were aware of group identity. When tumors reached approximately 200 mm^3, mice were randomized by match and distributed into treatment and control groups. All xenograft trials were conducted using 5 to 10 mice per group, and all mice were ear tagged and monitored individually throughout the studies. […] Tumor burden in the systemic MV4-11-Red.Fluc experiment was measured using an IVIS® spectrum from PerkinElmer by taking the total photon flux of the entire dorsal side of an individual mouse. […] A background control mouse that was tumor naive but received D-Luciferin was placed in the upper left corner of each image. The total flux from this animal was subtracted from the total flux of each animal present in the image.
For in vivo studies, maximal tumor growth inhibition (TGI) was calculated as the greatest treatment response using the following equation: Maximal TGI = (1 − mean tumor volume of the treated group/mean tumor volume of the vehicle control group) × 100. The tumor growth delay (TGD) percentage was determined as the percentage increase of the median time period for the treatment group to reach an arbitrary tumor volume of 1000 mm^3 relative to the vehicle control group. […] A power analysis was conducted using historical data to determine the number of animals required to yield significance of 0.05 at a 30% difference. […] Data from experiments in vivo were analyzed using the student’s t-test for TGI values and the Mann–Whitney U test for TGD using Excel and GraphPad Prism. Fisher’s exact test was used to probe significance of differences in response frequency.

Cc1c(Cl)c2c(Cl)c(C)c1-c1c(-c3ccc(F)cc3)sc3ncnc(c13)O[C@@H](C(=O)O)Cc1cc(ccc1OCc1ccnc(-c3ccc(OC[C@H]4COCCO4)cc3)n1)OC[C@@H](CN1CCN(C)CC1)O2 [Compound A-1747745]
Results: toxicity following iv injection: A-1747745 and A-1746463 showed lethal toxicity due to drug precipitate folowing iv injection.
